The target of experiment [1] is T1, SIRT1 (Homo sapiens, UniProt Q96EB6).
T1 sequence (Q96EB6 1-747): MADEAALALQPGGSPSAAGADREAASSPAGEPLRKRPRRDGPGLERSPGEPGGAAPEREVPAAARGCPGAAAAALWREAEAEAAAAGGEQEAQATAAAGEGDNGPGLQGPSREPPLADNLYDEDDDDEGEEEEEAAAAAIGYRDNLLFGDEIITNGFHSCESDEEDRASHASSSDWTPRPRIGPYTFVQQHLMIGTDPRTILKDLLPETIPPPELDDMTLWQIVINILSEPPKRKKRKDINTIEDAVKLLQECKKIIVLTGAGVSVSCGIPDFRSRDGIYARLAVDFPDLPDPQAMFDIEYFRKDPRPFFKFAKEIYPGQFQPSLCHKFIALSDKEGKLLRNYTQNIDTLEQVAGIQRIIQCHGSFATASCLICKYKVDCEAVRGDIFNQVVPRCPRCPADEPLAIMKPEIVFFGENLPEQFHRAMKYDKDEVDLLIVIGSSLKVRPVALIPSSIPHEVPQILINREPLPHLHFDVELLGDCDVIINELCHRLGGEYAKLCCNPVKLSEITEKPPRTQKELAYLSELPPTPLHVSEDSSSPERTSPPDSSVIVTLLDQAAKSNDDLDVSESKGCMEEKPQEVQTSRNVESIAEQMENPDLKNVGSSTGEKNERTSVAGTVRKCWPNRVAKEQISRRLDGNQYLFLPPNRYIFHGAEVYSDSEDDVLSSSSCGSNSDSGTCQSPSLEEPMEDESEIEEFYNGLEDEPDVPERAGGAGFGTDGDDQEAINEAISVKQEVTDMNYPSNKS
The experiment in a line: TAMRA based mass spectrometry assay of SIRT1 activity. It is filed as biochemical. The conditions noted are these: for TAMRA EC1.5 (μM) / TAMRA EC1.5: concentration giving 150% activation of SIRT1; for Emax: percent maximum fold activation, read-out: TAMRA % Fold Act. Put shortly:
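Recombinant N-terminal His-tagged human SIRT1 (10 nM, E. coli) incubated 25 min at 25 °C with 0.5 μM 5TMR-labelled p53-derived acetyl-peptide and 120 μM βNAD+ in Tris-acetate pH 8 buffer with DTT and 0.05% BSA, compound at varying concentrations. Stopped with formic acid; deacetylated peptide or OAADPR measured by mass spectrometry relative to DMSO controls.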

The target of experiment [2] is T1, SIRT1. The experiment in a line: Trp mass spectrometry assay of SIRT1 activity. Type of experiment: biochemical. The settings on record: for Trp EC1.5 (μM) / Trp EC1.5: concentration giving 150% activation of SIRT1; for Emax: percent maximum fold activation, read-out: Trp % Fold Act. Put shortly: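 His-tagged SIRT1 expressed in E. coli BL21(DE3), 10 nM, incubated 25 min at 25° C. with 0.5 μM Ac-RHKK(Ac)W-NH2 peptide and 120 μM βNAD+ in 50 mM HEPES pH 7.5, […], 1 mM DTT, 0.05% BSA; formic acid stop. OAADPR or deacetylated peptide measured by mass spectrometry; EC1.5 and percent maximum activation versus DMSO control.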

The text below walks through data of patent US9957271B2, “Substituted bicyclic aza-heterocycles and analogues as sirtuin modulators” (GlaxoSmithKline, LLC, priority 2012, dated 2018).

With `Cc1nc2ccc(-c3ccccc3C(F)(F)F)nn2c1NC(=O)c1cccc(N2CCC2)n1` [Compound 383], in experiment [1] (TAMRA assay), the “TAMRA EC1.5 (μM)” value is listed as “A (EC1.5<1 μM)” and the Emax was at least 350%. Also, in experiment [2] (Trp assay), the “Trp EC1.5 (μM)” value is “B (EC1.5 1-25 μM)” and the Emax was at least 350%.

Regarding `Cc1c(-c2ccccc2Cl)nn2c(NC(=O)c3cccc(N4CCCC4)n3)cnc2c1C` [Compound 386], in experiment [1] (TAMRA assay), the “TAMRA EC1.5 (μM)” value was “A (EC1.5<1 μM)” and the Emax is at least 350%. For the same compound, in experiment [2] (Trp assay), the “Trp EC1.5 (μM)” value was “B (EC1.5 1-25 μM)” and the Emax was under 350%.

Take `Cc1c(-c2ccccc2C(F)(F)F)nn2c(C(=O)Nc3cccc(OC[C@H](O)CO)n3)cnc2c1C` [Compound 387, (R)-N-(6-(2,3-dihydroxypropoxy)pyridin-2-yl)-7,8-dimethyl-6-(2-(trifluoromethyl)phenyl)imidazo[1,2-b]pyridazine-3-carboxamide]: in experiment [1] (TAMRA assay), the “TAMRA EC1.5 (μM)” value is recorded as “A (EC1.5<1 μM)” and the Emax is at least 350%. Besides, in experiment [2] (Trp assay), the “Trp EC1.5 (μM)” value is recorded as “A (EC1.5<1 μM)” and the Emax was at least 350%.

Regarding `Cc1nccc(C(=O)Nc2cnc3ccc(-c4ccccc4C(F)(F)F)nn23)n1` [Compound 389], in experiment [1] (TAMRA assay), the “TAMRA EC1.5 (μM)” value is “A (EC1.5<1 μM)” and the Emax is at least 350%. Further, in experiment [2] (Trp assay), the “Trp EC1.5 (μM)” value is on record as “B (EC1.5 1-25 μM)” and the Emax is under 350%.

As for `Cc1ncccc1C(=O)Nc1cnc2ccc(-c3ccccc3C(F)(F)F)nn12` [Compound 392], in experiment [1] (TAMRA assay), the “TAMRA EC1.5 (μM)” value is recorded as “C (EC1.5>25 μM)” and the Emax is under 350%. Also, in experiment [2] (Trp assay), the “Trp EC1.5 (μM)” value is reported as “C (EC1.5>25 μM)” and the Emax is under 350%.

As to `Cc1ccc(C(=O)Nc2cnc3ccc(-c4ccccc4C(F)(F)F)nn23)cn1` [Compound 393], in experiment [1] (TAMRA assay), the “TAMRA EC1.5 (μM)” value is reported as “B (EC1.5 1-25 μM)” and the Emax was under 350%. In experiment [2] (Trp assay), the “Trp EC1.5 (μM)” value is recorded as “C (EC1.5>25 μM)” and the Emax was under 350%.

Take `O=C(Nc1cccnn1)c1cnc2ccc(-c3ccccc3OC(F)(F)F)nn12` [Compound 395]: in experiment [1] (TAMRA assay), the “TAMRA EC1.5 (μM)” value is given as “A (EC1.5<1 μM)” and the Emax was at least 350%. In experiment [2] (Trp assay), the “Trp EC1.5 (μM)” value is “A (EC1.5<1 μM)” and the Emax is at least 350%.

In the case of `Cc1cc(NC(=O)c2cnc3ccc(-c4ccccc4OC(F)(F)F)nn23)nc(C)n1` [Compound 398], in experiment [1] (TAMRA peptide substrate), the “TAMRA EC1.5” value is reported as “A (EC1.5<1 μM)” and the Emax is at least 350%. Further, in experiment [2] (Trp peptide substrate), the “Trp EC1.5” value is listed as “B (EC1.5 1-25 μM)” and the Emax was under 350%.

For the compound `Cc1ccnc(NC(=O)c2cnc3ccc(-c4ccccc4OC(F)(F)F)nn23)n1` [Compound 401], in experiment [1] (TAMRA peptide substrate), the “TAMRA EC1.5” value is on record as “A (EC1.5<1 μM)” and the Emax was at least 350%. In experiment [2] (Trp peptide substrate), the “Trp EC1.5” value is listed as “A (EC1.5<1 μM)” and the Emax is at least 350%.

As for `Cc1cc(NC(=O)c2cnc3ccc(-c4ccccc4C(F)(F)F)nn23)cc(OCC(O)CO)n1` (stereo not shown) [Compound 406], in experiment [1] (TAMRA peptide substrate), the “TAMRA EC1.5” value was “A (EC1.5<1 μM)” and the Emax is at least 350%. In experiment [2] (Trp peptide substrate), the “Trp EC1.5” value is “A (EC1.5<1 μM)” and the Emax was at least 350%.

Regarding `Cc1cc(-c2ccccc2C(F)(F)F)nn2c(NC(=O)c3ccccn3)cnc12` [Compound 407, N-(8-methyl-6-(2-(trifluoromethyl)phenyl)imidazo[1,2-b]pyridazin-3-yl)picolinamide], in experiment [1] (TAMRA peptide substrate), the “TAMRA EC1.5” value is listed as “A (EC1.5<1 μM)” and the Emax was at least 350%. In addition, in experiment [2] (Trp peptide substrate), the “Trp EC1.5” value is “B (EC1.5 1-25 μM)” and the Emax was at least 350%.

As for `Cc1nc(C(=O)Nc2cnc3c(C)cc(-c4ccccc4C(F)(F)F)nn23)cs1` [Compound 412], in experiment [1] (TAMRA peptide substrate), the “TAMRA EC1.5” value is on record as “A (EC1.5<1 μM)” and the Emax is at least 350%. Moreover, in experiment [2] (Trp peptide substrate), the “Trp EC1.5” value was “A (EC1.5<1 μM)” and the Emax was at least 350%.

With `Cc1nc(C(=O)Nc2cnc3c(C)cc(-c4ccccc4C(F)(F)F)nn23)c(C)s1` [Compound 413], in experiment [1] (TAMRA peptide substrate), the “TAMRA EC1.5” value is “A (EC1.5<1 μM)” and the Emax is at least 350%. For the same compound, in experiment [2] (Trp peptide substrate), the “Trp EC1.5” value was “A (EC1.5<1 μM)” and the Emax is under 350%.
